Tested on: neurons that have low expression of ATG7
Conditions: pretreatment of neurons with lentiviral shRNA knock-down of ATG7; neurotoxin MPP+
Description: A lentiviral shRNA was used to knock-down the expression of ATG7, a component of the autophagy system.

Structure (SMILES): CN1CCCC1c1cccnc1 (stereo not shown) [nicotine]
- prevention of MPP+ induced cellular damage: prevent MPP+ induced cellular damage
